This series in a line: Water solubility of the active agent. Format: physicochemical. The following applies: in water; read-out: Wasserlöslichkeit.

This note sets out measurements from patent EP0168522A2, “Active agent-containing shaped article” (Akzo Patente GmbH, priority 1983, dated 1986).

Molecules are shown by their SMILES. In brackets after ≈: the same amount, converted by molar mass.

In the case of `CC(=O)Nc1ccc(O)cc1` [Acetaminophen], the solubility stood at 14 mg/mL (≈ 92.6 mM). In the case of `Oc1ccc(O)cc1` [Hydrochinon], the solubility is ~70 mg/mL (≈ 636 mM).
